Data on one molecule can be found in ChEMBL document CHEMBL1152078, “An efficient preparation of the potent and selective pseudopeptide thrombin inhibitor, inogatran” (Bioorg Med Chem Lett, 1997).

Series [1] can be described thus: The compound was evaluated for bioavailability in rats; 32-51. In kind it is ADME, organism-based. The following applies: rat, in vivo; read-out: Bioavailabiility.
Series [2] in a line: The compound was evaluated for bioavailability in dogs; 34-44. It is filed as ADME, organism-based, Canis lupus familiaris. The following applies: dog, in vivo; read-out: Bioavailabiility.

Take `Cl.Cl.N=C(N)NCCCNC(=O)[C@@H]1CCCCN1C(=O)[C@@H](CC1CCCCC1)NCC(=O)O`: the bioavailability in series [1] was 51%; in series [2], 44%.
